From US11739053B2, “P62-ZZ chemical inhibitor” (ID4PHARMA, LLC, priority 2011, dated 2023) come the findings set out here.

Each structure is given as a SMILES string.

The IC50 is the concentration that inhibits the measured activity by half. Low readings indicate greater potency in that assay, high ones weaker potency in that assay.

One series has as its system MM1.S myeloma cell line. In words: MM1.S myeloma cell proliferation, MTT assay. The class given is cell-based, human. The note with it: 48 h. Here is the method: (§1) FIG. 4A-C: 4A. Effect of p62-ZZ inhibitor #3 on myeloma cell growth. MM cell growth was assayed by MTT assay. Data are shown as mean±SD (n=5). FIG. 4B. MTT assay of CD138(+) primary myeloma cells. Data are shown as mean±SD (n=5). FIG. 4C. Effects of p62-ZZ inhibitors on human stromal cell growth. Primary human stromal cells (5×10^3/well) were cultured with 10 μM of p62-ZZ inhibitor (#1-6) containing 10% FCS in IMDM for 48 hours. Stromal cells growth was assayed by MTT assay. Data are shown as the mean±SD (n=5). *P<0.01 compared to vehicle treated culture. MM1.S (3×10^5 cells/well) or CD138 (+) (1×10^5 cells/well) primary myeloma cells were incubated in 96-well plates in the presence of RPMI-1640-10% FCS and various concentrations of p62-ZZ inhibitor #3 at 37° C. 5% CO2 for 48 h to determine the IC50 for inhibiting myeloma cell proliferation.

Series [1] concerns CD138(+) primary myeloma cells. In words: CD138(+) primary myeloma cell proliferation, MTT assay. Format: cell-based, human. The note with it: 48 h, FIG. 4B. Here is the method: as §1
In general terms: Tetrazolium dyes change colour on reduction, which living cells bring about.

The next series deals with VCAM-1 expression. In words: TNF-α induced VCAM-1 expression by marrow stromal cells, Western blot. Format: cell-based, human. To be noted: 3 h pre-treatment, TNFα 48 hours. The method, then: FIG. 5A-B: 5A. VCAM-1 expression using Western blot analysis. Normal human stromal cells were cultured with/without TNF and p62-ZZ inhibitors (#1-6) for 48 hours. The cell lysates were collected and VCAM-1 expression was measured using an anti-VCAM-1 antibody (Santa Cruz). FIG. 5B. IL-6 production by human and mouse marrow stromal cells by ELISA. Normal human and mouse marrow stromal cells were cultured with/without TNFα and p62-ZZ inhibitors (#1-6) for 48 hours. The cell culture media were collected and IL-6 production measured using an IL-6 ELISA kit (R &D). Data are shown as the means (n=2). Normal human or mouse marrow stromal cells were maintained in 10% FBS-IMDM and treated with p62-ZZ inhibitors (#1-6) for 3 hours. Then TNFα or vehicle was added for 48 hours. Cell lysates were collected and VCAM-1 expression measured by Western blot using an anti-VCAM-1 antibody (Santa Cruz). The culture media were collected and IL-6 production was measured using an IL-6 ELISA kit (R&D Company).
Background: A western blot detects proteins with antibodies after separation by electrophoresis.

The next series relates to IL-6 production. In words: TNF-α induced IL-6 production by marrow stromal cells, ELISA. Format: cell-based, human. Here is the method: FIG. 5A-B: 5A. VCAM-1 expression using Western blot analysis. Normal human stromal cells were cultured with/without TNF and p62-ZZ inhibitors (#1-6) for 48 hours. The cell lysates were collected and VCAM-1 expression was measured using an anti-VCAM-1 antibody (Santa Cruz). FIG. 5B. IL-6 production by human and mouse marrow stromal cells by ELISA. Normal human and mouse marrow stromal cells were cultured with/without TNFα and p62-ZZ inhibitors (#1-6) for 48 hours. The cell culture media were collected and IL-6 production measured using an IL-6 ELISA kit (R &D). Data are shown as the means (n=2).
Normal human or mouse marrow stromal cells were maintained in 10% FBS-IMDM and treated with p62-ZZ inhibitors (#1-6) for 3 hours. Then TNFα or vehicle was added for 48 hours. Cell lysates were collected and VCAM-1 expression measured by Western blot using an anti-VCAM-1 antibody (Santa Cruz). The culture media were collected and IL-6 production was measured using an IL-6 ELISA kit (R&D Company).
Background: ELISA stands for enzyme-linked immunosorbent assay.

For a further series, the system named is human OCL formation. In words: Human osteoclast (OCL) formation. The note with it: various concentrations, 2 weeks, 1 ng/ml TNFα. Format: cell-based. Here is the method:
FIG. 7A-C: 7A. CFU-Blast colony formation. Human CD34(+) cells were cultured with p62-ZZ inhibitor #3 and 1 ng/ml of rhIL-3 IL-6 and SCF for 7 days. Data are shown as the mean±SD (n=5). FIG. 7B. Human OCL formation. Non-adherent mononuclear cells (2.5×10^7 cells/10-cm dish) derived from human bone marrow samples were cultured in α-MEM containing 10% FCS, 100 pg/ml recombinant human GM-CSF(R & D) for 7 days. Then the cells were collected and plated (cell density is 1.0×10^6 cells/nil) in α-MEM containing 20% horse serum with 1 ng/ml TNFα. Half-media changes were performed twice a week containing various concentrations of the p62-ZZ inhibitor #3. The cultures were incubated for a total of 2 weeks at 37° C. with 5% CO2 and 95% humidity. The osteoclasts were stained with the 23C6 antibody which recognizes CD51/61. Data are shown as the mean±SD (n=5). *P<0.01 compared to vehicle treated cultures. 7C. OCL formation by wild type and p62−/− mouse osteoclast precursors. Data is shown as the mean±SD (n=4). *: P<0.01 compared to no-inhibitor cultures. Whether p62-ZZ inhibitor #3 affects hematopoesis since osteoclast precursors are derived from hematopoietic cells was examined. […] Colonies were scored after 7 days of culture using an inverted microscope.

The nature of series [2]: In vivo toxicity, single dose and multidose MTD study. Here is the method: FIG. 10A-D: 10A. Single dose acute toxicity study by Up/Down Methods. Body weights of the mice following dosing. FIG. 10B. Mean body weights of mice during multidose MTD study. Data are shown as mean±SD for 5 mice. FIG. 10C. Median body weight of mice during multidose MTD study. FIG. 10D. Plasma concentrations p62-ZZ antagonist in pilot mice after 100 mg/kg IV.
Preliminary in vivo studies of the p62-ZZ antagonist #3 were performed 5 to determine the toxicity, multiple doses MTD and plasma concentration of the antagonist given IV. For the pilot PK study the prototype p62-ZZ antagonist (compound #3) was used as an internal standard for Mass spectroscopy assays.

Turning to `OCCNCc1ccc(OCc2ccccc2)c(OCc2ccccc2)c1` [Compound 3, 2-[[3,4-bis(phenylmethoxy)phenyl]methylamino]ethanol], the “growth of MM1.S myeloma cell line (result in words)” value with MM1.S myeloma cell line (FIG. 4A) is recorded as “directly inhibited”. Further, half-maximal inhibition in the series with MM1.S myeloma cell line (Homo sapiens, MM1.S) (IC50) was put at 6.19 µM. The “growth of CD138(+) primary myeloma cells (result in words)” value in series [1] is reported as “directly inhibited”. Besides, the “VCAM-1 expression induced by TNF-α blocked compared to vehicle” value with VCAM-1 expression came out at 30%. Also, the “IL-6 production induced by TNF-α blocked compared to vehicle” value with IL-6 production (marrow stromal cells, 3 h pre-treatment, TNFα 48 hours) amounted to 90%. Moreover, the “IL-6 production by TNF-α stimulated normal human stromal cells (result in words)” value with IL-6 production (normal human stromal cells, FIG. 5B) is listed as “blocked IL-6 production”. In addition, the “human OCL formation” value with human OCL formation was “blocked human OCL formation dose dependently”. Also, the “effect on body weight” value in series [2] (doses up to 100 mg/kg, single dose or qdx5/day, up to 20 days) is on record as “no effect”. For the same compound, in series [2] (mice of the in vivo studies), the “gross pathology of brain, liver, kidney tissue” value is listed as “no gross pathology”.
